For 24 molecules, T/C results are on record in PubChem BioAssay AID256 (DTP/NCI, 2004).

The subject of this assay is CD2F1 mice, L1210 leukemia ip, survival T/C. Description: NCI In Vivo Anticancer Drug Screen. Data for tumor model L1210 Leukemia (intraperitoneal) in CD2F1 (CDF1) mice. Particulars: higher = longer survival. The method, boiled down:
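Each value reflects a quotient of treated over vehicle control outcomes in mice with a transplanted tumor.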

Where [1] appears, read: endpoint: mean survival time, dose: 100.0 mg/kg/injection, schedule: Q04DX003 (ip), vehicle: saline with Tween-80.
Where [2] appears, read: endpoint: mean survival time, dose: 200.0 mg/kg/injection, schedule: Q04DX003 (ip), vehicle: saline with Tween-80.
Where [3] appears, read: endpoint: mean survival time, dose: 400.0 mg/kg/injection, schedule: Q04DX003 (ip), vehicle: saline with Tween-80.
The mark [4] stands for this setting: endpoint: mean survival time, dose: 50.0 mg/kg/injection, schedule: Q01DX009 (ip), vehicle: saline with Tween-80.
The mark [5] stands for this setting: endpoint: mean survival time, dose: 100.0 mg/kg/injection, schedule: Q01DX001 (ip), vehicle: saline with Tween-80.
The mark [6] stands for this setting: endpoint: mean survival time, dose: 100.0 mg/kg/injection, schedule: Q01DX009 (ip), vehicle: saline with Tween-80.
Where [7] appears, read: endpoint: mean survival time, dose: 200.0 mg/kg/injection, schedule: Q01DX001 (ip), vehicle: saline with Tween-80.
[8] abbreviates: endpoint: mean survival time, dose: 200.0 mg/kg/injection, schedule: Q01DX009 (ip), vehicle: saline with Tween-80.
[9] abbreviates: endpoint: mean survival time, dose: 400.0 mg/kg/injection, schedule: Q01DX001 (ip), vehicle: saline with Tween-80.

Values joined by “and” are separate entries in the source; they are usually repeats but may differ in a detail not shown here. Equal entries are not always repeated. Toxic doses and inconclusive results are not listed.

For the molecule `CC(=O)Nc1cc(Cl)c2ncn(C3OC(CO)C(O)C3O)c2n1` (configuration not stated), the T/C runs as follows: (endpoint: mean survival time, dose: 12.5 mg/kg/injection, schedule: Q01DX005 (ip), vehicle: water) 102 % of control; (endpoint: mean survival time, dose: 25.0 mg/kg/injection, schedule: Q01DX005 (ip), vehicle: water) 95 % of control; (endpoint: mean survival time, dose: 50.0 mg/kg/injection, schedule: Q01DX005 (ip), vehicle: water) 102 % of control; (endpoint: mean survival time, dose: 100.0 mg/kg/injection, schedule: Q01DX005 (ip), vehicle: water) 91 % of control; (endpoint: mean survival time, dose: 200.0 mg/kg/injection, schedule: Q01DX005 (ip), vehicle: water) 101 % of control.
Regarding `Nc1ncc(C2OC(CO)C(O)C2O)c(=O)[nH]1` (configuration not stated), the T/C was 160 % of control (endpoint: median survival time, dose: 64.0 mg/kg/injection, schedule: Q01DX005 (ip), vehicle: saline); 162 % of control and 243 % of control (endpoint: median survival time, dose: 128.0 mg/kg/injection, schedule: Q01DX005 (ip), vehicle: saline); 94 % of control (endpoint: median survival time, dose: 256.0 mg/kg/injection, schedule: Q01DX005 (ip), vehicle: saline).
As for `O/N=C/c1cccc(CC(O)(C(F)(F)F)C(F)(F)F)n1`, the T/C by setting is: under setting [1], 97 % of control; under setting [2], 95 % of control; under setting [3], 95 % of control.
As for `COc1ccn(C2OCCC(OC(C)=O)C2O)c(=O)n1` (configuration not stated), the T/C is 107 % of control (endpoint: median survival time, dose: 12.5 mg/kg/injection, schedule: Q01DX005 (ip), vehicle: alkali diluted with saline); 120 % of control (endpoint: median survival time, dose: 25.0 mg/kg/injection, schedule: Q01DX005 (ip), vehicle: alkali diluted with saline); 120 % of control (endpoint: median survival time, dose: 50.0 mg/kg/injection, schedule: Q01DX005 (ip), vehicle: alkali diluted with saline); 102 % of control (endpoint: median survival time, dose: 100.0 mg/kg/injection, schedule: Q01DX005 (ip), vehicle: alkali diluted with saline); 109 % of control (endpoint: median survival time, dose: 200.0 mg/kg/injection, schedule: Q01DX005 (ip), vehicle: alkali diluted with saline).
In the case of `Cc1cc(I)ccc1NC(=S)Nc1ccccc1F`, the T/C was 93 % of control under setting [4]; 100 % of control under setting [5]; 90 % of control under setting [6]; 96 % of control under setting [7]; 93 % of control under setting [8]; 96 % of control under setting [9].
Turning to `C1CC2OC2CCC2OC12` (configuration not stated), the T/C by setting is: (endpoint: mean survival time, dose: 100.0 mg/kg/injection, schedule: Q01DX009 (ip), vehicle: saline sonified) 103 % of control; under setting [1], 100 % of control; (endpoint: mean survival time, dose: 200.0 mg/kg/injection, schedule: Q01DX009 (ip), vehicle: saline sonified) 104 % of control; under setting [2], 97 % of control; (endpoint: mean survival time, dose: 400.0 mg/kg/injection, schedule: Q01DX009 (ip), vehicle: saline sonified) 104 % of control; under setting [3], 103 % of control.
For the molecule `COc1cc(/C=N/NC(=O)CNC(=O)NCc2ccco2)ccc1O`, the T/C was 92 % of control under setting [4], 92 % of control under setting [6] and 92 % of control under setting [8].
For the molecule `N#CSC/C(=N\Nc1ccc([N+](=O)[O-])cc1[N+](=O)[O-])c1ccccc1`, the T/C by setting is: (endpoint: mean survival time, dose: 100.0 mg/kg/injection, schedule: Q04DX003 (ip), vehicle: saline sonified) 103 % of control; (endpoint: mean survival time, dose: 200.0 mg/kg/injection, schedule: Q04DX003 (ip), vehicle: saline sonified) 102 % of control; (endpoint: mean survival time, dose: 400.0 mg/kg/injection, schedule: Q04DX003 (ip), vehicle: saline sonified) 103 % of control.
With `Cc1ccc(NC(=O)N(CCCl)N=O)cc1`, the T/C is, setting by setting: (endpoint: mean survival time, dose: 9.0 mg/kg/injection, schedule: Q01DX015 (ip), vehicle: saline) 189 % of control; (endpoint: mean survival time, dose: 15.0 mg/kg/injection, schedule: Q01DX015 (ip), vehicle: saline) 193 % of control; (endpoint: mean survival time, dose: 25.0 mg/kg/injection, schedule: Q01DX015 (ip), vehicle: saline) 87 % of control.
`CS(=O)(=O)OCCN(CCOS(C)(=O)=O)c1ccc(C=Nc2ccc(C(=O)O)c(O)c2)cc1`: the T/C was 104 % of control (endpoint: mean survival time, dose: 0.5 mg/kg/injection, schedule: Q01DX009 (ip), vehicle: saline); 101 % of control (endpoint: mean survival time, dose: 1.0 mg/kg/injection, schedule: Q01DX009 (ip), vehicle: saline); 107 % of control (endpoint: mean survival time, dose: 2.0 mg/kg/injection, schedule: Q01DX009 (ip), vehicle: saline); 104 % of control (endpoint: mean survival time, dose: 4.0 mg/kg/injection, schedule: Q01DX009 (ip), vehicle: saline).
As to `C=CCN(CC=C)C(=O)Nc1ccc(C)c(C)c1`, the T/C by setting is: under setting [4], 96 % of control; under setting [6], 92 % of control; under setting [8], 96 % of control.
Consider `CCOC(=O)c1ccc(NCC2=Nc3c(N)nc(N)nc3NC2)cc1`, for which the T/C reads like this: (endpoint: mean survival time, dose: 12.5 mg/kg/injection, schedule: Q01DX001 (ip), vehicle: carboxymethylcellulose (CMC)) 95 % of control; (endpoint: mean survival time, dose: 25.0 mg/kg/injection, schedule: Q01DX001 (ip), vehicle: carboxymethylcellulose (CMC)) 108 % of control; (endpoint: mean survival time, dose: 50.0 mg/kg/injection, schedule: Q01DX001 (ip), vehicle: carboxymethylcellulose (CMC)) 96 % of control.
Turning to `Cc1ccc(NC(=O)Nc2ccc(S(N)(=O)=O)cc2)cc1C`, the T/C was 96 % of control under setting [4], 87 % of control under setting [6] and 87 % of control under setting [8].
Take `CC(=O)OC1OC(C)C(OC(C)=O)C(OC(C)=O)C1NC(=O)N(CCCl)N=O` (configuration not stated): the T/C (endpoint: mean survival time, dose: 17.0 mg/kg/injection, schedule: Q01DX001 (ip), vehicle: saline with Tween-80) was 508 % of control; the T/C (endpoint: mean survival time, dose: 26.0 mg/kg/injection, schedule: Q01DX001 (ip), vehicle: saline with Tween-80) is 535 % of control; the T/C (endpoint: mean survival time, dose: 40.0 mg/kg/injection, schedule: Q01DX001 (ip), vehicle: saline with Tween-80) is 389 % of control.
`CCN(CC)CCOC(=O)c1ccccc1Nc1cccc(C)c1`: the T/C is, setting by setting: (endpoint: mean survival time, dose: 25.0 mg/kg/injection, schedule: Q01DX009 (ip), vehicle: saline) 89 % of control; (endpoint: mean survival time, dose: 50.0 mg/kg/injection, schedule: Q01DX009 (ip), vehicle: saline) 101 % of control; (endpoint: mean survival time, dose: 100.0 mg/kg/injection, schedule: Q01DX009 (ip), vehicle: saline) 97 % of control.
Take `CC(=O)OC1CCCC(OC(C)=O)C1OC(C)=O` (configuration not stated): the T/C (endpoint: mean survival time, dose: 100.0 mg/kg/injection, schedule: Q04DX003 (ip), vehicle: saline) is 107 % of control; the T/C (endpoint: mean survival time, dose: 200.0 mg/kg/injection, schedule: Q04DX003 (ip), vehicle: saline) was 96 % of control; the T/C (endpoint: mean survival time, dose: 400.0 mg/kg/injection, schedule: Q04DX003 (ip), vehicle: saline) is 101 % of control.
In the case of `COc1cc(/C=N\NC(=O)CNC(=O)Nc2cccc(Cl)c2)ccc1O`, the T/C is 91 % of control (endpoint: mean survival time, dose: 12.5 mg/kg/injection, schedule: Q01DX009 (ip), vehicle: saline with Tween-80); 91 % of control (endpoint: mean survival time, dose: 25.0 mg/kg/injection, schedule: Q01DX009 (ip), vehicle: saline with Tween-80); 91 % of control under setting [4].
For the molecule `O=C1CNC(=O)N1c1cccc(Cl)c1`, the T/C is, setting by setting: under setting [6], 96 % of control; under setting [8], 92 % of control.
For `CC(C)C(NC1=NCCO1)c1ccccc1` (configuration not stated), the T/C is 106 % of control (endpoint: mean survival time, dose: 12.5 mg/kg/injection, schedule: Q04DX003 (ip), vehicle: saline with Tween-80); 98 % of control (endpoint: mean survival time, dose: 25.0 mg/kg/injection, schedule: Q04DX003 (ip), vehicle: saline with Tween-80); 104 % of control (endpoint: mean survival time, dose: 50.0 mg/kg/injection, schedule: Q04DX003 (ip), vehicle: saline with Tween-80).
Regarding `CCS(=O)(=O)C(C)S(=O)(=O)CC`, the T/C reads like this: under setting [5], 100 % of control; under setting [7], 107 % of control; under setting [9], 104 % of control.
On to `NC(=O)c1ccc[n+](CCN(CCCl)c2ccc3ccccc3c2)c1`, for which the T/C is, setting by setting: (endpoint: mean survival time, dose: 1.25 mg/kg/injection, schedule: Q01DX009 (ip), vehicle: Klucel (hydroxypropylcellulose) (HPC)) 104 % of control; (endpoint: mean survival time, dose: 2.5 mg/kg/injection, schedule: Q01DX009 (ip), vehicle: Klucel (hydroxypropylcellulose) (HPC)) 107 % of control; (endpoint: mean survival time, dose: 5.0 mg/kg/injection, schedule: Q01DX009 (ip), vehicle: Klucel (hydroxypropylcellulose) (HPC)) 102 % of control.
For the molecule `CCC(O)C(C)[N+](=O)[O-]` (configuration not stated), the T/C is 95 % of control under setting [4], 102 % of control under setting [6] and 95 % of control under setting [8].
As for `CCOC(=O)/C=C(/C)N`, the T/C runs as follows: (endpoint: mean survival time, dose: 100.0 mg/kg/injection, schedule: Q01DX001 (ip), vehicle: saline) 101 % of control; (endpoint: mean survival time, dose: 200.0 mg/kg/injection, schedule: Q01DX001 (ip), vehicle: saline) 101 % of control; (endpoint: mean survival time, dose: 400.0 mg/kg/injection, schedule: Q01DX001 (ip), vehicle: saline) 107 % of control.
For the molecule `NC1=C(Br)C(=O)C(=O)c2ccccc21`, the T/C is, setting by setting: under setting [5], 101 % of control; under setting [7], 101 % of control; under setting [9], 97 % of control.
